Assay results published in patent US20250320245A1, “Nucleoside Analogues for the Treatment of Parasitic Infections” (Universiteit Antwerpen, priority 2021, published 2025).

Key:
Type in all cases: cell-based
[1] = system: T. brucei (Squib 427); experiment: In vitro drug susceptibility assay, T. brucei; settings: Trypanosoma brucei; Table 1; mean and SEM of two independent experiments; read-out: T. brucei in vitro activity (IC50)
Description: Drug susceptibility assays with T. brucei (Squib 427), T. evansi type A (RoTat 1.2) and T. equiperdum (BoTat 1.1) were performed under similar conditions. Parasites were cultured in HMI-9 culture medium supplemented with 10% iFBS. To determine in vitro susceptibility of the abovementioned Trypanosoma species, 10 concentrations of a 4-fold dilution series (with a highest in-test concentration of 64 μM) was prepared for each compound, and parasites were seeded at 1.5×10^4 parasite/well. After 72 h of drug exposure at 37° C. with 5% CO2, resazurin was added to the wells (final concentration of 10 μg mL^−1), followed by another incubation for 24 h. Cell viability was determined by fluorescence reading (Tecan®, GENios) and 50% inhibitory concentration (IC50) was calculated for each compound.

[2] = Cytotoxicity assay on MRC-5 fibroblasts; settings: human, MRC-5SV2 embryonic lung fibroblasts; Table 1; mean and SEM of two independent experiments; highest concentration 64 μM; read-out: MRC-5 off-target cytotoxicity (CC50)
Description: MRC-5SV2 (Sigma-Aldrich/ECACC, catalogue number 84100401) human embryonic lung fibroblasts were used to perform cytotoxicity assays. The cells were cultured in minimum essential medium (MEM, Life Technologies) with Earle's salt medium, supplemented with L-glutamine, NaHCO3 and 5% inactivated fetal bovine serum (iFBS). Cells were seeded at 1.5×10^4 cells/well and 4-fold compound dilutions were immediately added with a highest in-test concentration of 64 μM. After a 3-day incubation, resazurin (Sigma-Aldrich) was added to each well (final concentration of 10 μg mL^−1), and cell viability was assessed by fluorescent reading (Tecan®, GENios) following 4 h of incubation with resazurin (37° C./5% CO2). The results were expressed as percentage reduction in cell growth/viability compared to control wells and the 50% cytotoxic concentration (CC50) was calculated for each of the compounds.

[3] = system: T. vivax (ILRAD700); experiment: Ex vivo drug susceptibility assay, T. vivax; settings: Trypanosoma vivax; Table 1; mean and SEM of two independent experiments; read-out: T. vivax in vitro activity (IC50)
Text: T. congolense (IL3000), the isometamidium (ISM)-resistant T. congolense strain (MSORO M7H), T. evansi type A (RoTat 1.2), T. evansi type B (KETRI 2479) and T. equiperdum (BoTat 1.1) used for in vitro, ex vivo and in vivo experiments were kindly provided by the Institute of Tropical Medicine (ITM), and T. vivax (ILRAD700) and T. congolense (TC13) used for ex vivo and in vivo experiments, were kindly provided by the University of Brussel (VUB).
Ex Vivo Drug Susceptibility Assays for T. vivax, T. congolense ISM-Resistant, and T. evansi Type B
For Trypanosoma species/strains that were not adapted to culture conditions, donor mice were infected intraperitoneally with 10^4 parasites. Around day 5-6 post infection, blood was collected via cardiac puncture and parasites were isolated using mini-anion exchange centrifugation technique (mAECT). 4-fold dilutions of the test compounds were prepared with the highest concentration of 64 μM, and parasites were seeded at 1×10^5 parasite/well. Following 24 h of drug exposure at 37° C. and 5% CO2, resazurin was added to the wells and plates were incubated (37° C./5% CO2) for another 24 h. Cell viability was determined by fluorescence reading (Tecan®, GENios), and IC50 values were calculated by non-linear regression (dose-response curve with variable slope) using Prism 8.0 (GraphPad Software Inc., San Diego, CA, USA).

Compound	IC50 [1]	CC50 at 3 day [2]	IC50 [3]
OC[C@H]1O[C@@H](n2ccc3c(SCCCc4ccccc4)ncnc32)[C@H](O)[C@@H]1O [FH15940, 4-(3-phenylpropyl)thio-N7-(β-D-ribofuranosyl)pyrrolo[2,3-d]pyrimidine]	106 ± 4 nM	24300 ± 940 nM	8710 ± 1190 nM
OC[C@H]1O[C@@H](n2ccc3c(SCCc4ccccc4)ncnc32)[C@H](O)[C@@H]1O [FH15953, 4-S-phenethyl-N7-(β-D-ribofuranosyl)pyrrolo[2,3-d]pyrimidine]	410 ± 10 nM	28900 ± 1340 nM	4930 ± 590 nM
CC(C)c1ccc(CSc2ncnc3c2ccn3[C@@H]2O[C@H](CO)[C@@H](O)[C@H]2O)cc1 [FH15941, 4-S-(4-isopropylbenzyl)-N7-(β-D-ribofuranosyl)pyrrolo[2,3-d]pyrimidine]	440 ± 20 nM	26900 ± 1380 nM	2370 ± 1470 nM
CC(C)Sc1ncnc2c1ccn2[C@@H]1O[C@H](CO)[C@@H](O)[C@H]1O [FH15958]	540 ± 40 nM	> 64000 nM	460 ± 250 nM
OC[C@H]1O[C@@H](n2ccc3c(SCc4ccccc4)ncnc32)[C@H](O)[C@@H]1O [FH14905]	19 ± 2 nM	> 64000 nM	32300 ± 4850 nM
COc1ccc(CSc2ncnc3c2ccn3[C@@H]2O[C@H](CO)[C@@H](O)[C@H]2O)cc1 [FH15960]	130 ± 8 nM	> 64000 nM	820 ± 270 nM
CCCCCSc1ncnc2c1ccn2[C@@H]1O[C@H](CO)[C@@H](O)[C@H]1O [FH15937, 4—S-pentyl-N7-(β-D-ribofuranosyl)pyrrolo[2,3-d]pyridimidine]	31 ± 1 nM	35300 ± 1000 nM	2190 ± 610 nM
Cc1ccc(CSc2ncnc3c2ccn3[C@@H]2O[C@H](CO)[C@@H](O)[C@H]2O)cc1 [FH15959, 4-S-(4-methylbenzyl)-N7-(β-D-ribofuranosyl)pyrrolo[2,3-d]pyrimidine]	31 ± 1 nM	> 64000 nM	18800 ± 650 nM
OC[C@H]1O[C@@H](n2ccc3c(SC4CCCCC4)ncnc32)[C@H](O)[C@@H]1O [FH15957, 4-S-cyclohexyl-N7-(β-D-ribofuranosyl)pyrrolo[2,3-d]pyrimidine]	190 ± 40 nM	58800 ± 1370 nM	3160 ± 710 nM
OC[C@H]1O[C@@H](n2ccc3c(SCc4ccc(Cl)c(Cl)c4)ncnc32)[C@H](O)[C@@H]1O [FH15934, 4-S-(3,4-dichlorobenzyl)-N7-(β-D-ribofuranosyl)pyrrolo[2,3-d]pyrimidine]	85 ± 1 nM	13900 ± 970 nM	8870 ± 90 nM
CCCCSc1ncnc2c1ccn2[C@@H]1O[C@H](CO)[C@@H](O)[C@H]1O [FH15936]	30 ± 0.1 nM	> 64000 nM	24 ± 7 nM
CCC(C)Sc1ncnc2c1ccn2[C@@H]1O[C@H](CO)[C@@H](O)[C@H]1O (stereo partly drawn) [FH15956, 4-S-sec-butyl-N7-(β-D-ribofuranosyl)pyrrolo[2,3-d]pyrimidine]	360 ± 40 nM	> 64000 nM	1980 ± 940 nM
CCSc1ncnc2c1ccn2[C@@H]1O[C@H](CO)[C@@H](O)[C@H]1O [FH15938, 4-S-ethyl-N7-(β-D-ribofuranosyl)pyrrolo[2,3-d]pyrimidine]	250 ± 50 nM	28200 ± 2030 nM	31 ± 9 nM
CC(C)CCSc1ncnc2c1ccn2[C@@H]1O[C@H](CO)[C@@H](O)[C@H]1O [FH15954, 4-S-isopentyl-N7-(β-D-ribofuranosyl)pyrrolo[2,3-d]pyrimidine]	30 ± 4 nM	43200 ± 2630 nM	230 ± 20 nM
CC(C)CSc1ncnc2c1ccn2[C@@H]1O[C@H](CO)[C@@H](O)[C@H]1O [FH15955, 4-S-2-methylpropyl-N7-(β-D-ribofuranosyl)pyrrolo[2,3-d]pyrimidine]	32 ± 1 nM	> 64000 nM	21 ± 2 nM
OC[C@H]1O[C@@H](n2ccc3c(SCC4CCCCC4)ncnc32)[C@H](O)[C@@H]1O [FH15962, 4-S-cyclohexylmethyl-N7-(β-D-ribofuranosyl)pyrrolo[2,3-d]pyrimidine]	31 ± 10 nM	19000 nM	2860 ± 260 nM
